Experiments:
[1] = Sensory evaluation of salty taste-enhancing action in salt aqueous solution (Example 1); conditions: 0.150 wt % evaluation sample and 0.700 wt % sodium chloride in distilled water; compared with 0.700-0.840 wt % saline
Method: The salty taste-enhancing action may be evaluated by a sensory test.
Each evaluation sample and sodium chloride (salt) were dissolved in distilled water to prepare an aqueous solution containing 0.150 wt % of the evaluation sample and 0.700 wt % of sodium chloride, which was used as an evaluation solution. In addition, solutions containing 0.700 wt %, 0.735 wt %, 0.770 wt %, 0.805 wt %, and 0.840% of sodium chloride were used as comparative objects.

[2] = Sensory evaluation of relationship between addition concentration and salty taste-enhancing action (Example 2); conditions: for Salty taste-enhancing effect: 0.700 wt % sodium chloride
Method: 3-Guanidino-1-propanol hydrochloride obtained in Synthesis Example 2 was evaluated for its relationship between an addition concentration and a salty taste-enhancing action.
3-Guanidino-1-propanol hydrochloride and sodium chloride (salt) were dissolved in distilled water to prepare an aqueous solution containing 1.5 ppm (0.00015 wt %), 15 ppm (0.0015 wt %), 150 ppm (0.015 wt %), or 1,500 ppm (0.15 wt %) of 3-guanidino-1-propanol hydrochloride and 0.700 wt % of sodium chloride, which was used as an evaluation solution. In addition, solutions containing 0.700 wt %, 0.735 wt %, 0.770 wt %, 0.805 wt %, and 0.840 wt % of sodium chloride were used as comparative objects.

SMILES: Cl.N=C(N)N [Guanidine hydrochloride]
- Salty taste-enhancing effect [1]: +++ (exhibiting a salty taste equal to or stronger than that of 0.805 wt % saline (exhibiting a salty taste-enhancing effect of 15% or more))

SMILES: N=C(N)NCCCCCC(=O)O [6-Guanidinocaproic acid]
- Salty taste-enhancing effect [1]: + (exhibiting a salty taste equal to or stronger than that of 0.735 wt % saline (exhibiting a salty taste-enhancing effect of 5% or more))

SMILES: Cl.N=C(N)NCCCO [Synthesis Example 2, 3-Guanidino-1-propanol hydrochloride]
- addition concentration at which a salty taste-enhancing action was exhibited ([2]; 0.700 wt % sodium chloride aqueous solution): ≥ 15 ppm
- Salty taste-enhancing effect ([2]; addition concentration 1.5 ppm (0.00015%)): ± (exhibiting a salty taste weaker than that of 0.735 wt % saline (exhibiting a salty taste-enhancing effect of less than 5%))
- Salty taste-enhancing effect ([2]; addition concentration 15 ppm (0.0015%)): + (exhibiting a salty taste equal to or stronger than that of 0.735 wt % saline (exhibiting a salty taste-enhancing effect of 5% or more))
- Salty taste-enhancing effect ([2]; addition concentration 150 ppm (0.015%)): ++ (exhibiting a salty taste equal to or stronger than that of 0.770 wt % saline (exhibiting a salty taste-enhancing effect of 10% or more))
- Salty taste-enhancing effect ([2]; addition concentration 1,500 ppm (0.15%)): ++++ (exhibiting a salty taste equal to or stronger than that of 0.840 wt % saline (exhibiting a salty taste-enhancing effect of 20% or more))

SMILES: N=C(N)NCCC(=O)O [β-Guanidinopropanoic acid]
- Salty taste-enhancing effect [1]: ++ (exhibiting a salty taste equal to or stronger than that of 0.770 wt % saline (exhibiting a salty taste-enhancing effect of 10% or more))

SMILES: N=C(N)NCCCO [Example 14]
- Salty taste-enhancing effect [1]: ++++ (exhibiting a salty taste equal to or stronger than that of 0.840 wt % saline (exhibiting a salty taste-enhancing effect of 20% or more))

Source: patent US12122736B2, “Salty taste-enhancing agent and manufacturing method therefor, and salty taste-enhancing method” (NISSIN FOODS HOLDINGS CO., LTD., priority 2012, dated 2024)
